The source of these data is US9388189B2, “Pyrrolotriazinone derivatives as PI3K inhibitors” (ALMIRALL, S.A., priority 2012, dated 2016).

The target of this experiment is PI3Kδ (PI3Kd) (Homo sapiens (Human), UniProt O00329). The experiment can be described thus: PI3K HTRF enzymatic inhibition assay (cell-free), delta isoform. Particulars: read-out: IC50 PI3Kd HTRF; recombinant PI3K delta, [ATP] 15 μM, [PIP2] 2 μM, 30 min preincubation.
PI3Kδ (PI3Kd), sequence (O00329 whole entry, canonical isoform): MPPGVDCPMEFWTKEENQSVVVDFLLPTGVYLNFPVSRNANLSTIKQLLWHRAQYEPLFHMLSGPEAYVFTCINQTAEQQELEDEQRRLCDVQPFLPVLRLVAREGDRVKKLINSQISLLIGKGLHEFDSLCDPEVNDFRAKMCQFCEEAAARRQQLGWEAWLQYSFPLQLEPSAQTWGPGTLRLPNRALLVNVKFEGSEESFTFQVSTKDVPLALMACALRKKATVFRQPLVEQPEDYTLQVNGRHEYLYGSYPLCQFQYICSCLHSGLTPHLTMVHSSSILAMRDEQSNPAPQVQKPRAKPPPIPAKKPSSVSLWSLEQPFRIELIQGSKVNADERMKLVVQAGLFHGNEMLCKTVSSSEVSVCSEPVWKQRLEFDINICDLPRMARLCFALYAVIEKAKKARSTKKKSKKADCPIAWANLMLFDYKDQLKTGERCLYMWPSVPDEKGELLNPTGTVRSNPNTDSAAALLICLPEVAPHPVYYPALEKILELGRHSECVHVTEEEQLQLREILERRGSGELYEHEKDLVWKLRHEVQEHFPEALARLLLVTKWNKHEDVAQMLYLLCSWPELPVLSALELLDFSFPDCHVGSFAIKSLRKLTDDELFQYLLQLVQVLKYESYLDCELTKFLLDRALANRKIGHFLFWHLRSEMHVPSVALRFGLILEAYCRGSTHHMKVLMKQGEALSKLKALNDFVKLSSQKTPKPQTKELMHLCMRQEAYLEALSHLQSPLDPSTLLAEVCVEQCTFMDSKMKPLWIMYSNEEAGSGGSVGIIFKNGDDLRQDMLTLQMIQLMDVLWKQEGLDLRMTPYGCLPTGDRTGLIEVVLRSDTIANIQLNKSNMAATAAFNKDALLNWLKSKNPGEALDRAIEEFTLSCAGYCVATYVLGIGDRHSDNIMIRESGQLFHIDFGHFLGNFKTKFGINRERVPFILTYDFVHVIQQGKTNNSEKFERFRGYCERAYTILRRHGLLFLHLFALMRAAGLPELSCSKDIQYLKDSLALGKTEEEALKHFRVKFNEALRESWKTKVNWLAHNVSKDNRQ
PI3Kδ (PI3Kd), sequence (P27986 whole entry partner, canonical isoform): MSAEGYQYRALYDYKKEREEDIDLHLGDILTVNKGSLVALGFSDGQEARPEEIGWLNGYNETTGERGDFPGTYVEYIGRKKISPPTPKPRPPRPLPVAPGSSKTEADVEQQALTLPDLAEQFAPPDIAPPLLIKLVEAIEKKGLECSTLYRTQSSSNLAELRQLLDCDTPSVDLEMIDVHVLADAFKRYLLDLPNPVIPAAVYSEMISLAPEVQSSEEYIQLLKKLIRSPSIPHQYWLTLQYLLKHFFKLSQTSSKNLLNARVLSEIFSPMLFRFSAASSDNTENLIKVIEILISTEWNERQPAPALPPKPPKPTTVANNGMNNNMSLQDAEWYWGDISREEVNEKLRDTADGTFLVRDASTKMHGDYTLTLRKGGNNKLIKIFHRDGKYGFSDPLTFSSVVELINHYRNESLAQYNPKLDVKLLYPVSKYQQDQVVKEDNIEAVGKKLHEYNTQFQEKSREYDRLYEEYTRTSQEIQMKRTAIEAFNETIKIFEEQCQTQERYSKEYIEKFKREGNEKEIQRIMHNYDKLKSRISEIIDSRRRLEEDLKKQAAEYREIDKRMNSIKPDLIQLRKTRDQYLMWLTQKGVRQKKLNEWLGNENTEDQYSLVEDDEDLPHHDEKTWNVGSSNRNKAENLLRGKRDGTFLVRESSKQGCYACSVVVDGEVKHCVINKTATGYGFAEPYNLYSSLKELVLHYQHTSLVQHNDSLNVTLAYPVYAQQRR
As for `Cc1ccn2nc([C@H](C)Nc3ncnc4[nH]cc(-c5ccn(-c6cccc(O)c6)n5)c34)n(-c3ccccc3)c(=O)c12` [Example 163, (S)-2-(1-((5-(1-(3-Hydroxyphenyl)-1H-pyrazol-3-yl)-7H-pyrrolo[2,3-d]pyrimidin-4-yl)amino)ethyl)-5-methyl-3-phenylpyrrolo[2,1-f][1,2,4]triazin-4(3H)-one], the IC50 is 0.2 nM.

In the case of `C[C@H](Nc1ncnc2[nH]cc(-c3cc(NS(C)(=O)=O)cc4[nH]ccc34)c12)c1nn2cccc2c(=O)n1-c1ccccc1` [Example 165, (S)—N-(4-(4-((1-(4-Oxo-3-phenyl-3,4-dihydropyrrolo[2,1-f][1,2,4]triazin-2-yl)ethyl)amino)-7H-pyrrolo[2,3-d]pyrimidin-5-yl)-1H-indol-6-yl)methanesulfonamide], the IC50 amounted to 5 nM.

`Cc1ccn2nc([C@H](C)Nc3ncnc(N)c3-c3cccc(C(=O)Nc4cccc(O)c4)c3)n(-c3ccccc3)c(=O)c12` [Example 168, (S)-3-(4-Amino-6-((1-(5-methyl-4-oxo-3-phenyl-3,4-dihydropyrrolo[2,1-f][1,2,4]triazin-2-yl)ethyl)amino)pyrimidin-5-yl)-N-(3-hydroxyphenyl)benzamide]: the half-inhibitory concentration (IC50) is 2 nM.

For `Cc1ccn2nc(CNc3ncnc(N)c3-c3cncc(C(F)F)c3)n(-c3ccccc3)c(=O)c12` [Example 169, 2-(((6-Amino-5-(5-(difluoromethyl)pyridin-3-yl)pyrimidin-4-yl)amino)methyl)-5-methyl-3-phenylpyrrolo[2,1-f][1,2,4]triazin-4(3H)-one], the half-inhibitory concentration (IC50) was 3 nM.

On to `Cc1ccn2nc([C@H](C)Nc3ncnc(N)c3-c3cc(O)c4ccn(S(=O)(=O)c5ccc(O)cc5F)c4c3)n(-c3ccccc3)c(=O)c12` [Example 171, (S)-2-(1-((6-Amino-5-(1-((2-fluoro-4-hydroxyphenyl)sulfonyl)-4-hydroxy-1H-indol-6-yl)pyrimidin-4-yl)amino)ethyl)-5-methyl-3-phenylpyrrolo[2,1-f][1,2,4]triazin-4(3H)-one], for which the IC50 was 5 nM.

With `Cc1ccn2nc([C@H](C)Nc3ncnc4[nH]cc(-c5cc(O)cc(NC(N)=O)c5)c34)n(-c3ccccc3)c(=O)c12` [Example 175, (S)-1-(3-Hydroxy-5-(4-((1-(5-methyl-4-oxo-3-phenyl-3,4-dihydropyrrolo[2,1-f][1,2,4]triazin-2-yl)ethyl)amino)-7H-pyrrolo[2,3-d]pyrimidin-5-yl)phenyl)urea], the concentration for half-maximal inhibition (IC50) came out at 0.3 nM.

Consider `C[C@H](Nc1ncnc2[nH]cc(-c3cc(NS(C)(=O)=O)cc(OS(C)(=O)=O)c3)c12)c1nn2cccc2c(=O)n1-c1ccccc1` [Example 176, (S)-3-(Methylsulfonamido)-5-(4-((1-(4-oxo-3-phenyl-3,4-dihydropyrrolo[2,1-f][1,2,4]triazin-2-yl)ethyl)amino)-7H-pyrrolo[2,3-d]pyrimidin-5-yl)phenyl methanesulfonate], for which the IC50 is 1 nM.

As to `Cc1ccn2nc([C@H](C)Nc3ncnc4[nH]cc(-c5cc(NS(C)(=O)=O)cc6[nH]ncc56)c34)n(-c3ccccc3)c(=O)c12` [Example 181, (S)—N-(4-(4-((1-(5-Methyl-4-oxo-3-phenyl-3,4-dihydropyrrolo[2,1-f][1,2,4]triazin-2-yl)ethyl)amino)-7H-pyrrolo[2,3-d]pyrimidin-5-yl)-1H-indazol-6-yl)methanesulfonamide], the IC50 turned out to be 5 nM.

Turning to `CCOc1ncc(-c2c(N)ncnc2N[C@@H](C)c2nn3ccc(C)c3c(=O)n2-c2ccccc2)cc1NS(=O)(=O)c1ccc(O)cc1` [Example 187, (S)—N-(5-(4-Amino-6-((1-(5-methyl-4-oxo-3-phenyl-3,4-dihydropyrrolo[2,1-f][1,2,4]triazin-2-yl)ethyl)amino)pyrimidin-5-yl)-2-ethoxypyridin-3-yl)-4-hydroxybenzenesulfonamide], the IC50 was determined as 0.7 nM.
